What was measured:
[1] = xn = mol fraction of the nth substance listed; conditions: 101.3 kPa, Liquid; for speed of sound: Frequency=3 MHz, Sing-around technique in a fixed-path interferometer; for mass density: Vibrating tube method
[2] = refractive index (Na D-line) (dimensionless); xn = mol fraction of the nth substance listed; conditions: 101.3 kPa, Liquid, Standard Abbe refractometry

COS(=O)(=O)[O-].Cn1cc[n+](C)c1 [1,3-dimethylimidazolium methylsulfate] + CCCO
Conditions | mass density, [1] [kg/m3] | refractive index, [2] | speed of sound, [1] [m/s]
298 K, x1 = 0.039 | 843 | 1.389 | 1225
298 K, x1 = 0.208 | 995 | 1.413 | 1348
298 K, x1 = 0.382 | 1107 | 1.434 | 1481
298 K, x1 = 0.561 | 1193 | 1.452 | 1605
298 K, x1 = 0.702 | 1246 | 1.464 | 1684
298 K, x1 = 0.912 | 1307 | 1.477 | 1773
298 K, x1 = 1 | 1329 | 1.483 | 1811
303 K, x1 = 0.039 | 839 | 1.387 | 1208
303 K, x1 = 0.208 | 989 | 1.41 | 1332
303 K, x1 = 0.382 | 1100 | 1.432 | 1465
303 K, x1 = 0.561 | 1186 | 1.45 | 1590
303 K, x1 = 0.702 | 1239 | 1.461 | 1670
303 K, x1 = 0.912 | 1301 | 1.476 | 1760
303 K, x1 = 1 | 1322 | 1.481 | 1799
308 K, x1 = 0.039 | 834 | 1.385 | 1191
308 K, x1 = 0.208 | 984 | 1.408 | 1316
308 K, x1 = 0.382 | 1095 | 1.429 | 1450
308 K, x1 = 0.561 | 1181 | 1.447 | 1575
308 K, x1 = 0.702 | 1234 | 1.459 | 1656
308 K, x1 = 0.912 | 1297 | 1.474 | 1747
308 K, x1 = 1 | 1319 | 1.48 | 1787
313 K, x1 = 0.039 | 830 | 1.382 | 1175
313 K, x1 = 0.208 | 979 | 1.404 | 1300
313 K, x1 = 0.382 | 1090 | 1.426 | 1434
313 K, x1 = 0.561 | 1176 | 1.444 | 1561
313 K, x1 = 0.702 | 1229 | 1.456 | 1642
313 K, x1 = 0.912 | 1293 | 1.472 | 1734
313 K, x1 = 1 | 1315 | 1.479 | 1775

COS(=O)(=O)[O-].Cn1cc[n+](C)c1 [1,3-dimethylimidazolium methylsulfate] + CCCCO
Conditions | mass density, [1] [kg/m3] | refractive index, [2] | speed of sound, [1] [m/s]
298 K, x1 = 0.063 | 861 | 1.405 | 1263
298 K, x1 = 0.221 | 982 | 1.421 | 1357
298 K, x1 = 0.432 | 1108 | 1.443 | 1500
298 K, x1 = 0.64 | 1205 | 1.46 | 1617
298 K, x1 = 0.781 | 1258 | 1.47 | 1688
298 K, x1 = 0.927 | 1307 | 1.479 | 1761
298 K, x1 = 1 | 1329 | 1.483 | 1811
303 K, x1 = 0.063 | 857 | 1.401 | 1246
303 K, x1 = 0.221 | 977 | 1.418 | 1341
303 K, x1 = 0.432 | 1102 | 1.439 | 1485
303 K, x1 = 0.64 | 1198 | 1.457 | 1602
303 K, x1 = 0.781 | 1252 | 1.468 | 1675
303 K, x1 = 0.927 | 1300 | 1.477 | 1748
303 K, x1 = 1 | 1322 | 1.481 | 1799
308 K, x1 = 0.063 | 852 | 1.398 | 1229
308 K, x1 = 0.221 | 972 | 1.414 | 1325
308 K, x1 = 0.432 | 1097 | 1.435 | 1469
308 K, x1 = 0.64 | 1193 | 1.454 | 1587
308 K, x1 = 0.781 | 1248 | 1.465 | 1661
308 K, x1 = 0.927 | 1297 | 1.475 | 1735
308 K, x1 = 1 | 1319 | 1.48 | 1787
313 K, x1 = 0.063 | 848 | 1.395 | 1213
313 K, x1 = 0.221 | 967 | 1.41 | 1309
313 K, x1 = 0.432 | 1092 | 1.431 | 1454
313 K, x1 = 0.64 | 1189 | 1.45 | 1572
313 K, x1 = 0.781 | 1243 | 1.461 | 1647
313 K, x1 = 0.927 | 1293 | 1.472 | 1722
313 K, x1 = 1 | 1315 | 1.479 | 1775

Source: the NIST ThermoML archive (doi:10.1016/j.jct.2017.02.022)
